In general, IC50 refers to the concentration needed to halve the response being measured. A word on the TGI: it is the reduction of tumour growth relative to the control group.

The subject of series [1] is HeLa. Kind of series: Cytotoxicity against human HeLa cells assessed as reduction in cell viability incubated for 72 hrs by MTT assay. The format is functional, cell-based. (Formazan colour is commonly taken as a measure of viable cells.)
Series [2] concerns HepG2. Kind of series: Cytotoxicity against human HepG2 cells assessed as reduction in cell viability incubated for 72 hrs by MTT assay. The following applies: HepG2, 72 h. It is filed as functional, cell-based.
For series [3], the system named is MCF7. The experiment in a line: Cytotoxicity against human MCF7 cells assessed as reduction in cell viability incubated for 72 hrs by MTT assay. The format is functional, cell-based. The following applies: MCF7, 72 h.
For series [4], the system named is HT-29. The experiment in a line: Antitumor activity against human HT-29 cells xenografted in nude mouse assessed as reduction in tumor growth at 50 mg/kg, ip administered for 21 days relative to control. It is filed as functional. The following applies: HT-29, 504 h, time 21 day, read-out: TGI.
The test system of series [5] is HT-29. Kind of series: Antiproliferative activity against human HT-29 cells assessed as cell growth inhibition incubated for 72 hrs by MTT assay. The following applies: HT-29, 72 h. The format is functional, cell-based.
The subject of series [6] is HT-29. The experiment in a line: Antitumor activity against human HT-29 cells xenografted in nude mouse assessed as reduction in tumor growth at 50 mg/kg, po administered for 21 days relative to control. The format is functional. The following applies: HT-29, 504 h, time 21 day, read-out: TGI.
Series [7] relates to MCF7. The experiment in a line: Antiproliferative activity against human MCF7 cells assessed as cell growth inhibition incubated for 72 hrs by MTT assay. The format is functional, cell-based. The following applies: MCF7, 72 h.
Series [8] concerns HT-29. The experiment in a line: Antitumor activity against human HT-29 cells xenografted in BALB/c mouse assessed as reduction in tumor growth at 25 mg/kg, ip relative to control. Also on record: scale not given: the % may be the effect or the level left. It is filed as functional. On the technique in general: In xenograft studies the graft and the host belong to different species.

Series [9] deals with K562. The experiment in a line: Cytotoxicity against human K562 cells assessed as reduction in cell viability incubated for 48 hrs by MTT assay. The format is functional, cell-based. To be noted: K562, 48 h.
Series [10] concerns MCF7. Kind of series: Cytotoxicity against human MCF7 cells assessed as reduction in cell viability incubated for 48 hrs by MTT assay. To be noted: MCF7, 48 h. It is filed as functional, cell-based.
The test system of series [11] is HT-29. Kind of series: Cytotoxicity against human HT-29 cells assessed as reduction in cell viability incubated for 48 hrs by MTT assay. It is filed as functional, cell-based. To be noted: HT-29, 48 h.
For series [12], the system named is MDA-MB-435. The experiment in a line: Antitumor activity against human MDA-MB-435 cells xenografted in Sprague-Dawley rat model assessed as reduction in tumor volume at 50 mg/kg, ip relative to control. Further details: scale not given: the % may be the effect or the level left. The format is functional.
In series [13] the target is Ubiquitin carboxyl-terminal hydrolase 8 (Homo sapiens, UniProt P40818). The experiment in a line: Inhibition of human USP8 expressed in Escherichia coli using K63-linked di-ubiquitin (ENZO BML-UW0730-0050) as substrate preincubated for 15 mins followed by substrate addition and measured after 20 mins by fluorescence based analysis.
Series [14] deals with NCI-H460. Kind of series: Antitumor activity against human NCI-H460 cells xenografted in nude mouse assessed as tumor growth inhibition at 6.25 mg/kg, po administered twice daily for 14 days in presence of 2-deoxyglucose relative to control. It is filed as functional. Also on record: scale not given: the % may be the effect or the level left. To be noted: time 14 day.
In series [15] the test system is OE19. The experiment in a line: Antitumor activity against human OE19 cells xenografted in NOD/SCID mouse model assessed as tumor growth inhibition at 25 mg/kg, ip administered for 14 days in presence of flavopiridol relative to control. It is filed as functional. Further details: scale not given: the % may be the effect or the level left. To be noted: time 14 day.

Series [16] concerns OE19. The experiment in a line: Antitumor activity against human OE19 cells xenografted in NOD/SCID mouse model assessed as tumor growth inhibition at 25 mg/kg, ip administered for 14 days relative to control. The format is functional. The following applies: OE19, 336 h, time 14 day, read-out: TGI.
Series [17] has as its system OE19. The experiment in a line: Antitumor activity against human OE19 cells xenografted in NOD/SCID mouse model assessed as tumor growth inhibition at 25 mg/kg, ip administered for 46 days relative to control. The format is functional. Also on record: scale not given: the % may be the effect or the level left. To be noted: time 46 day.
Series [18] is described as follows: Cytotoxicity against human KOB cells assessed as cell growth inhibition incubated for 72 hrs by MTT assay. It is filed as functional, cell-based.
The target of series [19] is Heat shock protein HSP 90-beta (Homo sapiens, UniProt P08238). The experiment in a line: Inhibition of human recombinant HSP90beta expressed in Escherichia coli BL21 (DE3) incubated for 12 hrs.
Series [20] concerns the target Heat shock protein HSP 90-alpha (Homo sapiens, UniProt P07900). The experiment in a line: Inhibition of human recombinant HSP90alpha expressed in Escherichia coli BL21 (DE3) incubated for 12 hrs by.
Series [21] in a line: Cytotoxicity against human HuT 102 cells assessed as reduction in cell growth incubated for 72 hrs by MTT assay. The format is functional, cell-based. To be noted: HuT-102, 72 h.
A short description of series [22]: Cytotoxicity against human OATL4 cells assessed as cell growth inhibition incubated for 72 hrs by MTT assay. The following applies: OATL4, 72 h. The format is functional, cell-based.
Series [23] in a line: Antitumor activity against human HuT 102 cells xenografted in mouse assessed as reduction in tumor growth at 14 mg/kg, po relative to control. It is filed as functional. The following applies: read-out: TGI.
Series [24] deals with H22. The experiment in a line: Antitumor activity against mouse H22 cells implanted in Kunming mouse assessed as reduction in tumor growth at 10 mg/kg, iv relative to control. It is filed as functional. The following applies: read-out: TGI.
For series [25], the system named is H22. The experiment in a line: Antitumor activity against mouse H22 cells implanted in Kunming mouse assessed as reduction in tumor growth at 20 mg/kg, iv relative to control. To be noted: read-out: TGI. The format is functional.
Series [26] is described as follows: […] in mouse xenografted with human NCI-H526 cells assessed as reduction in tumor growth at 3 mg/kg, po relative to control. The format is organism-based. The following applies: in vivo.

Chain of Ubiquitin carboxyl-terminal hydrolase 8 (P40818 whole entry): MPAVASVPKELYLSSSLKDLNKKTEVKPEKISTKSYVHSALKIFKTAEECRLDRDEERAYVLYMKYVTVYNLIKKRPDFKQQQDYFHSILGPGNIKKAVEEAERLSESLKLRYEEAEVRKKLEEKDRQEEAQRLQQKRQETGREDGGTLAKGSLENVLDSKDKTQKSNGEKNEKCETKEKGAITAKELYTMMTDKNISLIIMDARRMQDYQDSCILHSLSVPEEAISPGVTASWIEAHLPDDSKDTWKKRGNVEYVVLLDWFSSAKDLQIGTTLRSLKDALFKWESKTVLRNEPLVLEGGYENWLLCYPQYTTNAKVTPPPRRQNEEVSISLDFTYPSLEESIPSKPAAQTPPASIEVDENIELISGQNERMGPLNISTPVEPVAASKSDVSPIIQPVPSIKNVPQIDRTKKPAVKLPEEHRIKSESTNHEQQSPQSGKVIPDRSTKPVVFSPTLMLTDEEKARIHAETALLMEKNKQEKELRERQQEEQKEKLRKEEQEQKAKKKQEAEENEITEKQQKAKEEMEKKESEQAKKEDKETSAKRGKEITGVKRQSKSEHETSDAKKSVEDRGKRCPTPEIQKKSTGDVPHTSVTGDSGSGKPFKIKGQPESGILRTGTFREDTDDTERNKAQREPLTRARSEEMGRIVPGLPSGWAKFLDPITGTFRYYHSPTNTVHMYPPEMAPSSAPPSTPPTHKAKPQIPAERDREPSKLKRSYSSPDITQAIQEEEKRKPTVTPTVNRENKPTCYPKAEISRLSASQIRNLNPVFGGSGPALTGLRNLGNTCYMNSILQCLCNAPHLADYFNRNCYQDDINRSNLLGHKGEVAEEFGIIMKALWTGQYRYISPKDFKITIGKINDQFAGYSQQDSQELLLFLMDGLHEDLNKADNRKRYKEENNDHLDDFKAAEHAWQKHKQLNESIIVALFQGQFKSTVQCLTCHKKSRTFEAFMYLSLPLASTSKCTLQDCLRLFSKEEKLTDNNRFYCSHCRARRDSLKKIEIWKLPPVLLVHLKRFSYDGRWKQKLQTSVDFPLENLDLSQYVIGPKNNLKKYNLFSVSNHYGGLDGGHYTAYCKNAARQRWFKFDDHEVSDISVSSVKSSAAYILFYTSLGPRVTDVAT
Chain of Heat shock protein HSP 90-beta (P08238 whole entry): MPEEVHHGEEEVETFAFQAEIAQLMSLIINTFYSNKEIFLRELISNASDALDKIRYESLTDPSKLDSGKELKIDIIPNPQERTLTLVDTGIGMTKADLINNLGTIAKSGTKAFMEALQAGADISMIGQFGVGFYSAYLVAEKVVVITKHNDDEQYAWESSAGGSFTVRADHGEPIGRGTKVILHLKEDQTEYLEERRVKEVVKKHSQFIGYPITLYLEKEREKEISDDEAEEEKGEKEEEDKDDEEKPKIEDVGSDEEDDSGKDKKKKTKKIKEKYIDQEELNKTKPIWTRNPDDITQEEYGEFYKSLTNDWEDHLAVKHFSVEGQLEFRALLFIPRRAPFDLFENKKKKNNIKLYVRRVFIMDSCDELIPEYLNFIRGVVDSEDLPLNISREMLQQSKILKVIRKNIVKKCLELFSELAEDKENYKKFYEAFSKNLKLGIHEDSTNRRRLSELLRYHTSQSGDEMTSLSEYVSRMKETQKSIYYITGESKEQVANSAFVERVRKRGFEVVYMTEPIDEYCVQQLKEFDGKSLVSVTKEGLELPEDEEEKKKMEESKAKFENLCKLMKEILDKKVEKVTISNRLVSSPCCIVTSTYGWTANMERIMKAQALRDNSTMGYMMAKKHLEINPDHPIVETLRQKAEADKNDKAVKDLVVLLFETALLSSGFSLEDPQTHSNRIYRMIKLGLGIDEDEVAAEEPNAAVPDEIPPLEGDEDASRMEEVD

Regarding `Cc1n[nH]c2c1C(c1ccc(N(C)C)cc1)C(C(N)=O)=C(N)N2` (centres undefined), the values for the IC50 in series [1], in [2] and in series [3] were 4.18 µM, 4.55 µM and 4.24 µM, respectively.
`O=C1CN(CC(=O)N2N=C(c3ccccc3)CC2c2ccccc2)C(=O)N1` (centres undefined): the values for the inhibition in vivo at 50 mg/kg in [4] and in series [6] were 31% and 34%, respectively. Moreover, the figures for the concentration for half-maximal inhibition (IC50) in [5] and in series [7] were 0.01 µM and 0.69 µM, respectively.
Consider `O=C1NC(=O)/C(=C/c2ccc3cc(OCC(=O)N4N=C(c5ccc(F)cc5)CC4c4ccccc4Cl)ccc3c2)S1` (centres undefined), for which the Activity in series [8] stood at 30%. Also, the IC50 in series [9], in [10] and in [11] was 8.2 µM throughout.
As to `Brc1ccc(-n2nc(-c3cccnc3)cc2-c2ccccc2)cc1`, the Activity in [12] is 40%. In addition, in [13], the half-inhibitory concentration (IC50) was 1.2 µM.
Regarding `C[C@@]1(C(=O)Nc2ccc(F)nc2)CCCN1c1nc(Nc2cc(C3CC3)n[nH]2)c2cccn2n1` [BMS-754807], the Activity amounted to 69% in series [14], 92.2% in series [15] and 61.8% in series [17]. Besides, in [16], the inhibition in vivo at 25 mg/kg amounted to 52%.
As for `CCOC(=O)C1=C(N)Nc2[nH]nc(C)c2C1c1ccc(N(C)C)cc1` (centres undefined), the 50% inhibitory concentration (IC50) in [1] is 4.18 µM; in [2], 4.55 µM; in series [3], 4.24 µM.
Regarding `CCc1cc(C(N)=O)ccc1-n1nc(C(C)C)c2c(-n3cnc(-c4cnn(C)c4)c3)ccnc21` [TAS-116], the half-inhibitory concentration (IC50) in series [18] is 0.376 µM; in series [19] it was 0.0213 µM; in [20] it was 0.0347 µM; in [21], 0.376 µM; in series [22], 0.376 µM. Also, the inhibition in vivo at 14 mg/kg in series [23] is 70%.
With `COc1cccc(C2=NN(C(N)=O)C(c3cn(C)c4ccc(Br)cc34)C2)c1` (centres undefined), in series [24], the inhibition in vivo at 10 mg/kg is 65%. The inhibition in vivo at 20 mg/kg in series [25] worked out at 76%.
For `Cc1nnn(C)c1-c1cnc2c3cc4cnn(C)c4cc3n([C@H](c3ccccc3)C3CCOCC3)c2c1`, the TGI in series [26] is reported as 100%.
